The NIST ThermoML archive (doi:10.1016/j.fluid.2018.06.003)
± gives the expanded uncertainty stated by the source.

Tests used:
[1] = refractive index (Na D-line) (dimensionless); xn = mol fraction of the nth substance listed; conditions: 298.15 K; 101 kPa; Liquid; Standard Abbe refractometry; x1 = 0.3336
[2] = xn = mol fraction of the nth substance listed; conditions: 298.15 K; 101 kPa; Liquid; Vibrating tube method; x1 = 0.3336

C[N+](C)(C)C.[Cl-] [tetramethylammonium chloride] + OCC(O)CO
refractive index [1]: 1.47183 ± 0.00044 | mass density [2]: 1145.22 ± 2.1 kg/m3
